Experimental data taken from patent EP0604354B1, “Antidepressant and antiparkinsonian compounds” (N[…]/S, priority 1992, dated 1994).

Legend:
[1] = molecular target: T1, reuptake of dopamine in synaptosomes of rat forebrain (Rattus norvegicus, UniProt P23977); assay: inhibition of reuptake of 3H-dopamine in synaptosomes of rat forebrain; assay type: biochemical
T1 construct: Fresh whole forebrain (at 0-4°C) from male Wistar rats (150-200 g) is homogenized; from tissue; host or cells: male Wistar rat whole forebrain, crude synaptosomal supernatant
Procedure: Fresh whole forebrain (at 0-4°C) from male Wistar rats (150-200 g) is homogenized in a glass homogenizer with a teflon pestle in 20 x volumes 0.32M sucrose. The homogenate is centrifuged at 1000 x g (∼ 2900 rpm) for 10 min. The pellet is discarded and the supernatant is used for uptake assays.
A Krebs Buffer (119 mM NaCI, 24 mM NaHCO3, 2.1 mM KCI, 1.2 mM KH2PO4, 1.8 mM CaCl2, 2 mM MgSO4, 7H2O, 12 mM glucose) is equilibrated with an atmosphere of 96% O2: 4% CO2 for at least 60 min at 37°C. To 5 ml Krebs-buffer 100 µl of the radioactivity is added (3H-dopamine 1 x 10^-9M final concentration) and 100 µl test substance solution and 200 µl of tissue suspension. The samples are thoroughly mixed and incubated 10 min at 37°C followed by 2 min at 0°C. After incubation the samples are poured directly onto Whatman GF/C glass fibre filters under suction and immediately washed with 2 x 5 ml ice-cold 0.9% saline (NaCI) buffer. To the filter is added 3 ml of scintillation fluid, and the amount of radioactivity on the filters is determined by conventional liquid scintillation counting.

[2] = test system: rearing and locomotor activities; assay: behavioural excitatory locomotor and rearing responses (gross behaviour rating); assay type: in vivo; settings: rat, 50 mg/kg i.p., maximum peak effect, observed 5-6 hrs
Procedure: Male SPF wistar rats weighing 200-250g were used for the gross behavioural studies. All rats were transferred the day before the experiments to individual cages made of wire netting (floor area 21 x 27 cm, height 16 cm) at a room temperature of 21-23° C. […] The behavioural elements here classified as rearing (i.e. standing up on the hindlegs) and locomotor activities (i.e. forward running activities) were registered, and the maximum peak effects were classified according to the following rating scale: • 0 = non-existent or very infrequent • + = weak and infrequent • ++ = moderate in intensity and frequency • +++ = very strong, continuous and intense
The degree of locomotor activity was also tested and measured quantitatively in photocell activity cages. For the measurement of this locomotor activity 100 g female rats are used.

[3] = test system: abnormal stereotyped behaviour; assay: abnormal stereotyped behaviour (high intensity stereotypy rating); assay type: in vivo; settings: rat, 50 mg/kg i.p.
From the text: Backward locomotion may occasionally be observed.

[4] = test system: haloperidol-induced catalepsy; assay: catalepsy test for antiparkinsonian effects (antagonism of haloperidol-induced catalepsy); assay type: in vivo; settings: rat, given perorally 1 h before haloperidol 0.25 mg/kg s.c.; read-out: Minimum effective dose (peroral administration)
From the text: The day before testing, the rats weighing 200-250 g are housed 2 and 2 together in standard macrolon cages. […] The testing for the immobile catalepsy syndrome includes 4 tests performed in the following consecutive order: • 1) a vertical wire netting (40x40 cm high).The meshes (openings) of the nettings are approximately 1x2cm. • 2) a horizontal bar 9 cm above the floor • 3) a 9 cm high block (bar) • 4) a 3 cm high block (cork)
The rats were scored for the immobile cataleptic syndrome every 15 min in all 4 tests starting 15 min after the haloperidol injection. The intensity of catalepsy was tested during 10 sec in all tests and evaluated according to a criteria of 10 sec of total immobility for a score of 2.
The rat was placed in the middle of the vertical wire netting, then on the horizontal bar in an extended position with support by both the forelegs on the bar. The rats were then tested, whether or not they were willing to sit with the left or right forelegs placed first on the 9 and then on the 3 cm block for a duration of 10 sec. The maximum score for all 4 tests is thus a total of 8.

[5] = test system: dopamine release; assay: dopamine releasing properties (no method given)

T1 sequence (P23977 whole entry): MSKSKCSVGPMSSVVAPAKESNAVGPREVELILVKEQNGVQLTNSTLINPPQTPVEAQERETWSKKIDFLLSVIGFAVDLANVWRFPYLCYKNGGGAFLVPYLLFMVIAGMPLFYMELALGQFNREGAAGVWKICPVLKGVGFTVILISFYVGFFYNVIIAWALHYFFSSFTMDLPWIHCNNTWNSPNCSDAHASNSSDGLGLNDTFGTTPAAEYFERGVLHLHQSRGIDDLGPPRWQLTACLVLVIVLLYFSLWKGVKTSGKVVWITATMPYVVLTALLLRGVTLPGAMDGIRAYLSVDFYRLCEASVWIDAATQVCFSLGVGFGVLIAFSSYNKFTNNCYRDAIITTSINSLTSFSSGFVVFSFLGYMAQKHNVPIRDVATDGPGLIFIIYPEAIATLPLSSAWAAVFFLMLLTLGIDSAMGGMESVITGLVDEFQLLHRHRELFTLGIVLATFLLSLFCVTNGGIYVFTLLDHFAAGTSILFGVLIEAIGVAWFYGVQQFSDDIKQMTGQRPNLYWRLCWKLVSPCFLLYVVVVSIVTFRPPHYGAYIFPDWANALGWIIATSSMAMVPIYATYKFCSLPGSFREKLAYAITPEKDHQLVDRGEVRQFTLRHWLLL

Structure (SMILES) | IC50 [1] [nM] | Activity (excitatory locomotor and rearing responses) [2] | Activity (abnormal stereotyped behaviour, high intensity stereotypy) [3] | minimal effective dose [4] [mg/kg] | dopamine releasing properties [5]
CN1[C@H]2CC[C@@H]1[C@H](COc1ccc(Cl)cc1)[C@@H](c1ccc(F)cc1)C2.Cl [(1R,2R,3S)-2-(4-Chlorophenoxy-methyl)-3-(4-fluorophenyl)tropane, hydrochloride] | 390 | 0 | 0 | < 1 | 
COC(=O)[C@@H]1[C@@H](c2ccc(F)cc2)C[C@@H]2CC[C@H]1N2C [trans isomer of Win 35,428] |  |  |  |  | essentially free of dopamine releasing properties
